These results are taken from patent publication US11878015B2, “Piperidine-substituted Mnk inhibitors and methods related thereto” (eFFECTOR Therapeutics Inc., priority 2017, dated 2024).

For one series, the system named is Phosphorylated eIF4E. As to the kind of experiment: peIF4E signaling cellular assay (CisBio peIF4E HTRF). It counts as cell-based. As to conditions: 2 hrs incubation at 37° C., 12-point curve 20 μM to 0.1 nM; read-out: pEI4IE signaling activity. The method, then: Phosphorylated eIF4E is assayed using the CisBio peIF4E HTRF® assay kit (CisBio, catalogue No. 64EF4PEG). Cells are plated in 96-well tissue-culture treated plate in appropriate growth medium (90 μL). Compounds (10×) are diluted using 3-fold serial dilutions in cell culture medium and added to cells. Plates are incubated for 2 hrs at 37° C. The cell supernatant is carefully removed either by aspirating supernatant or by flicking the plate. Immediately 50 μL of supplemented lysis buffer (1×) is added and incubated for at least 30 minutes at room temperature under shaking. After homogenization by pipeting up and down, 16 μL of cell lysate is transferred from the 96-well cell-culture plate to a 384-well small volume white plate. 4 μL of premixed antibody solutions (vol/vol) is prepared in the detection buffer and added. The plate is covered with a plate sealer and incubated overnight at room temperature. The fluorescence emissions at two different wavelengths are read (665 nm and 620 nm) on a Wallac Victor2. Emission ratios are converted into percent inhibitions and imported into GraphPad Prism software. […] IC50 values are determined using a nonlinear regression model available in GraphPad Prism 5.
To this end, IC50 values of less than 0.001 μM are labelled as “+++”, from 0.001 to 0.01 μM are labelled as “++”, and greater than 0.01 μM are labelled as “+” (NA means “not available”).

For another series, the system named is PD-1. As to the kind of experiment: PD-1 (CD279) expression on PHA/PMA-activated Jurkat T cells, flow cytometry. It counts as cell-based. Conditions: Homo sapiens, percentage of inhibition of PD-1 positive cells at 10 μM, 48 hours. Here is the method:
To examine the effect of MNK inhibitors on PD-1 expression, Jurkat cells (Clone E6.1, ATCC, transformed T cells) were used, which express PD-1 when activated through T cell receptor (TCR) signaling. Briefly, Jurkat cells were grown in 1×RPMI with 1×Pen/Strep, and 10% FBS, then about 3×10^6 Jurkat cells were activated in presence of 1 μg/mL PHA (Sigma) and 50 ng/mL PMA (Sigma). Test Cells were treated simultaneously with various concentrations of an MNK inhibitor (0, 0.01, 0.1, 1, 3 and 10 μM). After 48 hours, culture supernatants were harvested and examined via sandwich ELISA for the presence of IL-2 using human IL-2 ELISA DuoSet (R&D Systems, Minneapolis, Minn.). The level of PD-1 on Jurkat cells was examined by incubating with human FcR block, then contacted with allophycocyanin (APC) conjugated anti-PD-1 antibody (5 μl per 100 μl volume of test, Biolegend, San Diego, CA) for 25 minutes at 4° C., without washing the cells, fixable dead cell stain (1:10,000; BD Biosciences, San Jose, CA) was added and incubated further for 10 minutes at 4° C. Cells were washed two times with flow buffer, and finally cells were fixed with fixation buffer for 15 minutes at 4° C. After fixation, cells were washed twice with flow buffer and re-suspended in flow buffer and assessed for fluorescence using BD Accuri C6 flow cytometer. Data were analyzed using the C6 cytometer software (BD Biosciences, San Jose, CA) or Attune Nxt Cytometer (Invitrogen, Carlsbad, CA).
Activation of Jurkat T cells with PHA and PMA induced the expression of PD-1 on the cell surface of about 25-30% of the stimulated Jurkat cells as compared to uninduced cells (Unstim) and induced a 1,000-fold increase in IL-2 cytokine production, respectively. […] Lastly, MNK inhibition by various different MNK inhibitors had no effect on cell viability. […] To this end, percentage of inhibition of PD-1 positive cells (10 μM) of more than 50% are labelled as “+++”, from 10% to 50% are labelled as “++”, and less than 10% are labelled as “+” (NA means “not available”).

Series [1] can be described thus: High throughput thermodynamic solubility procedure. It counts as physicochemical. Conditions: for solubility in fasted state simulated gastric fluid (FaSSGF), in words: pH value of 1.6; for solubility at 18 h: thermodynamic from solid, 18 hours incubation, theoretical maximum 10 mM. The method, then: In a 96-well plate, 10 mM DMSO stocks (50-100 uL) of each compound were dried under heated nitrogen flow using a SPE-96 plate dryer (upper flow rate=50 L/min, temperature=60° C., lower flow rate=20 L/min, temperature=80° C.). […] Compounds prepared as the free base were assessed in conditions with and without one equivalent of TFA added. The theoretical maximum concentrations of the aqueous solutions were 10 mM. Each well was capped and incubated for a period of 18 hours at room temperature or 37° C. Mixing of the solutions during the incubation period was performed by either shaking the plate at 750 rpm or adding StirStix (stainless steel capillaries) and agitating the mixture using a rotary magnetic tumble stirrer. After the incubation period, aliquots from each well were filtered. Solubility of all samples were quantified following comparison to standards of known concentration by HPLC-UV.

[2] abbreviates: Fasted-State Simulated Intestinal Fluid (FaSSIF), pH 6.5, fassif, Fasted-State Simulated Intestinal Fluid, read-out: Aqueous Solubility FaSSIF (pH 6.5).
The mark [3] stands for this setting: deionized water, read-out: Aqueous Solubility DI H2O.

pIC50: −log10 of the molar value. Read-outs that look alike come from different tables or passages of the source. Where only a bound is given, the exact number is not on record here.

As to `Cc1cc(Nc2ncnc(N)c2Cl)c(=O)n2c1C(=O)N[C@@]21CCCNC1` [Compound 3L], the pIC50 with Phosphorylated eIF4E was 8.00 to 9.00. This compound showed an inhibition at 10 µM in the series with PD-1 greater than 50%. Moreover, the “solubility in fasted state simulated gastric fluid (FaSSGF), in words” value (from here on “solubility … in words”) in series [1] is given as “excellent solubility”. For the same compound, the values for the solubility at 18 h in series [1] (setting [2]) and in series [1] (setting [3]) were 70 µM and 3200 µM, respectively.

With `Cc1cc(Nc2ncnc(N)c2C)c(=O)n2c1C(=O)N[C@]21CCCN(C)C1` (stereo in doubt) [Compound 1Fa, (R)-6-((6-amino-5-methylpyrimidin-4-yl)amino)-1′,8-dimethyl-2H-spiro[imidazo[1,5-a]pyridine-3,3′-piperidine]-1,5-dione], the pIC50 in the series with Phosphorylated eIF4E is less than 8.00. Moreover, the inhibition at 10 µM in the series on PD-1 is 10 to 50%. Further, the “solubility … in words” value in series [1] is recorded as “excellent solubility”. In addition, the solubility at 18 h in series [1] (setting [2]) was 0.125 mg/mL; in series [1] (setting [3]), greater than 1.85 mg/mL.

As for `Cc1cc(Nc2ncnc(N)c2C)c(=O)n2c1C(=O)NC21CCN(CCC(F)(F)F)CC1` [Compound 3AA], in the series on Phosphorylated eIF4E, the pIC50 was 8.00 to 9.00. This compound came in with an inhibition at 10 µM in the series with PD-1 of less than 10%. Moreover, the values for the solubility at 18 h in series [1] (setting [2]) and in series [1] (setting [3]) were 30 µM and 4400 µM, respectively.

Regarding `Cc1cc(Nc2ncnc(N)c2Cl)c(=O)n2c1C(=O)NC21CCCNC1` (centres unmarked) [Compound 3C], the pIC50 in the series on Phosphorylated eIF4E is 8.00 to 9.00. The same compound showed an inhibition at 10 µM in the series with PD-1 greater than 50%. The figures for the solubility at 18 h in series [1] (setting [2]) and in series [1] (setting [3]) were 256 µM and 2600 µM, respectively.

On to `Cc1cc(Nc2ncnc(N)c2Cl)c(=O)n2c1C(=O)NC21CCN(C)CC1(C)C` (centres unmarked) [Compound 3DD], for which the pIC50 in the series with Phosphorylated eIF4E was greater than 9.00. The inhibition at 10 µM in the series with PD-1 was greater than 50%. For the same compound, the solubility at 18 h in series [1] (setting [2]) was 130 µM; in series [1] (setting [3]), 2100 µM.

As for `Cc1cc(Nc2ncnc(N)c2C#N)c(=O)n2c1C(=O)N[C@]21CCCN(C)C1` (single isomer, unassigned) [Compound 2Fa], in the series with Phosphorylated eIF4E, the pIC50 was 8.00 to 9.00. Also, the inhibition at 10 µM with PD-1 is 10 to 50%. Also, the “solubility … in words” value in series [1] is “excellent solubility”. For the same compound, the solubility at 18 h is 0.077 mg/mL in series [1] (setting [2]) and 1.84 mg/mL in series [1] (setting [3]).

Consider `Cc1cc(Nc2ncnc(N)c2Cl)c(=O)n2c1C(=O)NC21CNCCC1(C)C` (centres unmarked) [Compound 3S], for which the pIC50 in the series with Phosphorylated eIF4E is 8.00 to 9.00. Besides, in the series on PD-1, the inhibition at 10 µM was greater than 50%. Further, the solubility at 18 h in series [1] (setting [2]) was 600 µM; in series [1] (setting [3]), 4200 µM.

For the compound `Cc1cc(Nc2ncnc(N)c2C#N)c(=O)n2c1C(=O)NC21CCCN(C)C1` (racemic) [rac-2F], in the series on Phosphorylated eIF4E, the pIC50 was 8.00 to 9.00. For the same compound, the inhibition at 10 µM in the series with PD-1 lay in the range of 10 to 50%. Also, the “solubility … in words” value in series [1] is recorded as “excellent solubility”. Besides, the solubility at 18 h in series [1] (setting [2]) is 0.079 mg/mL.
